Test results from article PMC12040169 (PLOS Biology, 2025).

Experiment: in vitro
Conditions: human, hela cells, % viability

| SMILES | viability at 28.5 h, 10 µM [%] |
| --- | --- |
| Cc1nc(N)nc(NCC(O)CN(C)C)c1Cl (centres unmarked) [CBK306963] | 81.7 |
| COc1ccc(Nc2nnc(-c3ccc(C(=O)NCCO)cc3)c3ccccc23)cc1 [CBK263735] | 90.5 |
| Cc1nn(CC(=O)N2CCCC2)c(=O)c2cc3sccc3n12 [CBK284024] | 95.2 |
| Cc1ccccc1NS(=O)(=O)c1cc(CN2C[C@@H](C)NC[C@@H]2C)c2occc2c1 [CBK103579T] | 102 |
| COc1ccc(S(=O)(=O)NCc2ccc3c(c2)OCO3)cc1C(=O)O [CBK264070] | 97.6 |
| Cc1cc(NC(=O)c2ccc3c(c2)OCCO3)c2ccccc2n1 [CBK122739] | 103 |
| O=C(O)CN1C(=O)/C(=C\c2ccc(Oc3ccc(C(F)(F)F)cc3[N+](=O)[O-])cc2)SC1=S [CBK264809] | 97.9 |
| COC(=O)c1cn(Cc2ccccc2)nn1 [CBK073903] | 98.1 |
| CCCC/C=C/c1cnc(N)c(Nc2ccc(OC)cc2)n1 [CBK063890] | 93.9 |
| Cc1ccc(-c2cncc(NCc3cccs3)n2)cc1C [CBK065967] | 106 |
| Cc1cc(CN(C)Cc2c(-c3ccccc3)nn(C)c2C)n[nH]1 [CBK281707] | 88.8 |
| CCC1=NN(c2ccccc2)C(=O)C(CC(=O)Nc2ccccc2)c2cc(OC)c(OC)cc21 (centres unmarked) [CBK260938] | 89 |
| CC1CCc2onc(C(=O)Nc3ccncc3)c2C1 (centres unmarked) [CBK288080] | 110 |
| O=C(NCCc1c[nH]c2ccccc12)c1cccs1 [CBK231038] | 88.2 |
| O=C1Cc2ccccc2C2(CCN(C(=O)c3cccc4cccc(C(=O)O)c34)CC2)N1 [CBK047313] | 93.2 |
| COc1cc(CNC(=O)N2CCC(C(=O)O)CC2)cc(OC)c1OC [CBK161401] | 81.5 |
| FC(F)(F)c1cccnc1OCc1cccnc1 [CBK115780] | 101 |
| O=C(COc1ccc2c(c1)OCO2)Nc1ccccn1 [CBK288148] | 86.6 |
| Nc1nnc(Sc2nccnc2N2CCCC2)s1 [CBK093804] | 103 |
| Nc1cc(-c2ccco2)nn(Cc2c(F)cccc2Cl)c1=O [CBK282881] | 86.1 |
| Cc1sc2ncn(CCC(=O)O)c(=O)c2c1C [CBK288191] | 115 |
| Nc1cccc(-c2nccnc2NCc2cccnc2)c1 [CBK089310] | 105 |

| SMILES | viability at 28.5 h, 10 µM [%] |
| --- | --- |
| c1ccc(C(NCc2cnc(-c3ncccn3)s2)C2CCC2)cc1 (centres unmarked) [CBK304013] | 81.5 |
| O=C(C1COc2ccccc2O1)N(Cc1cccnc1)c1nc2c(F)cccc2s1 (centres unmarked) [CBK294421] | 91 |
| O=c1[nH]nc(SCCOc2c(Cl)c(Cl)c(Cl)c(Cl)c2Cl)c(=O)[nH]1 [CBK262794] | 91 |
| O=C(O)COc1cccc2ccccc12 [CBK218704] | 106 |
| Clc1ccc(Cl)c(-c2ccc(CNCc3cccnc3)o2)c1 [CBK269720C] | 103 |
| Oc1ccc(SCCCCCN2CCCCC2)cc1 [CBK261488] | 92.3 |
| O=c1[nH]c(=O)n([C@H]2C[C@@H](O)[C@@H](CO)O2)cc1CO [CBK201332] | 94 |
| Cc1ccc(C(=O)N2CCN(c3ccc(NC(=O)c4ccc(-c5cccc([N+](=O)[O-])c5)o4)cc3)CC2)cc1 [CBK266355] | 107 |
| Cc1ccc(Nc2cc(-c3cccnc3)ncn2)cc1NS(C)(=O)=O [CBK091147] | 91.2 |
| COc1ccc(/C=C2\S/C(=N/N=C/c3ccc(OC)cc3)N(c3ccc(O)cc3)C2=O)cc1 [CBK262780] | 87.7 |
| CN1CCN(c2nccnc2OCC2COc3ccccc3O2)CC1 (centres unmarked) [CBK003899C] | 96.7 |
| O=C(NCCO)c1cccc(-c2cncc(NCCCN3CCOCC3)n2)c1 [CBK065432] | 99.4 |
| O=C(c1ccc2c(c1)N(Cc1ccc(F)cc1)C(=O)CO2)c1cccs1 [CBK286410] | 92.3 |
| CCn1cc(C2CN(S(=O)(=O)c3ccccc3OC(F)F)CCO2)cn1 (centres unmarked) [CBK304234] | 106 |
| Cc1cc(C)nc(N/C(=N/C(=O)CCN2C(=O)c3ccccc3C2=O)Nc2cccc(Cl)c2)n1 [CBK266507] | 97 |
| CC(=O)CSc1nnc(-c2ccc(F)cc2)o1 [CBK068327] | 110 |
| O=C(Nc1nccs1)C1CCCN(C(=O)c2ccco2)C1 (centres unmarked) [CBK296725] | 98.7 |
| COc1cccc(-c2cncc(C3CN(Cc4cccc5ncccc45)CCO3)n2)c1 (centres unmarked) [CBK285973] | 102 |
| CN(CC1(C)COC1)C(=O)Cc1cccc2cccnc12 [CBK281963] | 91.7 |
| Cc1cc(-c2ccccc2)nn1C(CC(=O)O)C(=O)O (centres unmarked) [CBK263480] | 91.6 |
| Cc1csc2c(C3CCCN(C(=O)C4CC4)C3)nc(C)n12 (centres unmarked) [CBK285212] | 87.1 |
| Cc1cccc(-n2ncc3c(=O)n(CC(=O)NC4CCCCC4)cnc32)c1C [CBK287694] | 104 |

| SMILES | viability at 28.5 h, 10 µM [%] |
| --- | --- |
| CCn1cc(NC(=S)Nc2sc3c(c2C(=O)OC)CCC(C)C3)c(C(N)=O)n1 (centres unmarked) [CBK267032] | 105 |
| COc1cc(CN(C)Cc2cccc3ccccc23)c([N+](=O)[O-])cc1OC [CBK261850] | 89.3 |
| COc1cc(NS(=O)(=O)c2ccc(N/C=C3/CCc4ccccc4C3=O)cc2)nc(OC)n1 [CBK263376] | 82.4 |
| CC1(C#N)CCCN(Cc2c[nH]nc2C(=O)O)C1 (centres unmarked) [CBK307010] | 80.1 |
| COCCNc1nc(-c2cccc(F)c2)cn2ccnc12 [CBK066465] | 98.4 |
| CC(Sc1ncc(-c2ccc(F)cc2)n1Cc1ccccc1)C(=O)NC1CC1 (centres unmarked) [CBK297105] | 108 |
| Nc1ccc(CCNC(=O)c2cnc(-c3cccc(C(F)(F)F)c3)c(-c3ccncc3)c2)cc1 [CBK037580] | 90.8 |
| COCc1cccc(-c2ncc(OCC3COc4ccccc4O3)nc2N)c1 (centres unmarked) [CBK145113] | 93.1 |
| COc1cc(/C=C/C(=O)O)cc(S(=O)(=O)N2CCOCC2)c1OC [CBK264078] | 117 |
| CNC(=O)NC(=O)C1CCN(CCc2ccccc2)CC1 [CBK034956] | 106 |
| CCOC(=O)c1sc(NC(=O)C2CCCCC2)nc1C [CBK057893] | 92.3 |
| CN(C)c1nc(NC2CC2)nc(Oc2ccc(=O)n(-c3ccccc3)n2)n1 [CBK270187] | 93.9 |
| Cc1cc(C)n(CC(=O)N2CCNCC2c2cccc(Cl)c2)n1 (centres unmarked) [CBK304116] | 92.7 |
| Nc1ncn(Cc2ccccc2)c2nc(SCC(=O)O)nc1-2 [CBK267027] | 99.2 |
| Nc1nonc1C(=O)NCCNCc1cccs1 [CBK267305] | 95.2 |
| COc1ccc(C)cc1NC(=S)NCc1cnn(C)c1 [CBK267025] | 106 |
| O=C1CCCC[C@]2(CN(Cc3ccccc3)C[C@H]2c2ccccn2)N1 [CBK283340] | 82.6 |
| COc1ccc(C(=O)N(Cc2ccco2)Cc2cc3ccccc3nc2O)cc1 [CBK269594] | 95.9 |
| N#Cc1cccc(Nc2cncc(-c3cccc(N)c3)n2)c1 [CBK065319] | 89.1 |
| CCOc1ccc(C(=O)NC(=S)Nc2cccc(C(=O)O)c2C)cc1Br [CBK265100] | 93.6 |
| CC(Sc1ccccc1)C(=O)NCCN1CCOCC1 (centres unmarked) [CBK269332] | 95.9 |
